Patent US11806342B2, “Diiodohydroxyquinoline for the treatment of clostridium difficile infection” (Purdue Research Foundation, priority 2019, dated 2023)
≈ marks a conversion by molar mass, not a printed value.

Columns and labels:
Type in all cases: cell-based, Clostridium difficile
C. difficile ATCC 43255 [1] = assay: Initial screening of antiparasitic drugs, broth microdilution MIC; details: Clostridioides difficile, ATCC43255; initial screening, C. difficile ATCC 43255; read-out: MIC
Experimental: C. difficile strains were grown anaerobically on brain heart infusion supplemented (BHIS) agar plates at 37° C. for 48 hours. Afterwards, a bacterial solution equivalent to 0.5 McFarland standard was prepared and diluted in (BHIS) broth to achieve a bacterial concentration of about 5×10^5 CFU/mL. Drugs were added and serially diluted along the plates. Plates were then, incubated anaerobically at 37° C. for 48 hours. MICs reported in Table (1) are the minimum concentrations of the drugs that could completely suppress the visual growth of bacteria.

[2] = system: C. difficile ATCC BAA-1870; assay: Spore inhibition assay; details: five days
Experimental: (§1) The spore inhibition assay was performed as described in previous reports to investigate the effect of diiodohydroxyquinoline on C. difficile spore formation. Briefly, […], the bacterial suspension was split into microcentrifuge tubes and drugs were added (in triplicates) at concentrations equal to ½×MIC or 1×MIC. Tubes were then, incubated anaerobically for five days at 37° C. Thereafter, an aliquot from each tube was diluted and plated on BHIS agar plates supplemented with 0.1% taurocholic acid, to count the total bacterial counts (vegetative bacteria+spores). The remaining solution was centrifuged, and the pellet was suspended in PBS, stored overnight at 4° C., and subsequently shock-heated at 70° C. for 30 minutes to kill the vegetative cells. The resulting solution was serially diluted and plated to determine the heat-resistant spore counts. Spore inhibition assay was performed as described in previous reports to investigate the effect of DIHQ on C. difficile spore formation. Briefly, log-phase cultures of C. difficile strains (ATCC BAA-1870, ATCC 43255, and NR-49277) were diluted in BHIS to an initial density of ˜10^6 CFU/mL. Afterwards, the bacterial suspension was split in small tubes and the drugs were added (in triplicates) at concentrations equal to ½×MIC or 1×MIC. Tubes were then incubated anaerobically for 5 days at 37° C. After that, an aliquot from each tube was diluted and plated on BHIS agar plates supplemented with 0.1% taurocholic acid, to count the total bacterial count (vegetative bacteria+spores). The remaining solution was centrifuged, and the pellet was suspended in PBS and stored overnight at 4° C. then shock heated at 70° C. for 30 minutes to kill the vegetative cells. The resulting solution was serially diluted and plated to determine the heat-resistant spore counts.

C. difficile NR-49277 [3] = assay: Spore inhibition assay; details: five days
Experimental: as §1

C. difficile ATCC 43255 [4] = assay: Spore inhibition assay; details: five days
Experimental: as §1

[5] = system: C. difficile ATCC BAA-1870; assay: Time kill kinetics assay; details: C. difficile ATCC BAA-1870, 5×MIC, 37° C.
Experimental: (§2) Time kill kinetics assay. In order to examine the killing kinetics of DIHQ, a time kill kinetics assay was performed against Clostridium difficile ATCC BAA 1870 and C. difficile NR-49277 as described previously. […] Aliquots were collected from each treatment after 0, 4, 6, 8, 12, and 24 hours of incubation at 37° C. and subsequently serially diluted and plated for viable CFU/mL determination.

C. difficile NR-49277 [6] = assay: Time kill kinetics assay; details: C. difficile NR-49277, 5×MIC, 37° C.
Experimental: as §2

C. difficile I4 = assay: MIC and MBC, broth microdilution; details: Clostridioides difficile, C. difficile I4; for MBC: read-out: MBC; for MIC: read-out: MIC
Experimental: (§3) MIC50 and MIC90 are the minimum concentration of each agent that inhibited growth of 50% and 90% of the tested isolates, respectively. The minimum bactericidal concentration (MBC) of these drugs was tested by plating 5 μL from wells with no growth onto BHIS agar plates. The MBC was categorized as the lowest concentration that reduced bacterial growth by 99.9% MIC50 and MIC90 are the minimum concentration of each agent that inhibited the growth of 50% and 90% of the tested isolates, respectively. The minimum bactericidal concentration (MBC) of these drugs was tested by plating 5 μL from wells with no growth onto BHIS agar plates. The MBC was categorized as the lowest concentration that reduced bacterial growth by 99.9% [29-31].

C. difficile P1 = assay: MIC and MBC, broth microdilution; details: Clostridioides difficile, C. difficile P1; for MBC: read-out: MBC; for MIC: read-out: MIC
Experimental: as §3

C. difficile ATCC 700057 = assay: MIC and MBC, broth microdilution; details: Clostridioides difficile, ATCC700057, C. difficile ATCC 700057; for MBC: read-out: MBC; for MIC: read-out: MIC
Experimental: as §3

C. difficile ATCC 9689 = assay: MIC and MBC, broth microdilution; details: Clostridioides difficile, ATCC9689, C. difficile ATCC 9689; for MBC: read-out: MBC; for MIC: read-out: MIC
Experimental: as §3

C. difficile P7 = assay: MIC and MBC, broth microdilution; details: Clostridioides difficile, C. difficile P7; for MBC: read-out: MBC; for MIC: read-out: MIC
Experimental: as §3

C. difficile HM-89 = assay: MIC and MBC, broth microdilution; details: Clostridioides difficile, HM89, C. difficile HM-89; for MBC: read-out: MBC; for MIC: read-out: MIC
Experimental: as §3

C. difficile NR-49286 = assay: MIC and MBC, broth microdilution; details: Clostridioides difficile, NR49286, C. difficile NR-49286; for MBC: read-out: MBC; for MIC: read-out: MIC
Experimental: as §3

C. difficile NR-49284 = assay: MIC and MBC, broth microdilution; details: Clostridioides difficile, NR49284, C. difficile NR-49284; for MBC: read-out: MBC; for MIC: read-out: MIC
Experimental: as §3

C. difficile NR-49281 = assay: MIC and MBC, broth microdilution; details: Clostridioides difficile, NR49281, C. difficile NR-49281; for MBC: read-out: MBC; for MIC: read-out: MIC
Experimental: as §3

C. difficile P24 = assay: MIC and MBC, broth microdilution; details: Clostridioides difficile, C. difficile P24; for MBC: read-out: MBC; for MIC: read-out: MIC
Experimental: as §3

C. difficile P13 = assay: MIC and MBC, broth microdilution; details: Clostridioides difficile, C. difficile P13; for MBC: read-out: MBC; for MIC: read-out: MIC
Experimental: as §3

C. difficile I2 = assay: MIC and MBC, broth microdilution; details: Clostridioides difficile, C. difficile I2; for MBC: read-out: MBC; for MIC: read-out: MIC
Experimental: as §3

[7] = C. difficile ATCC BAA-1870, 1×MIC
[8] = C. difficile ATCC BAA-1870, ½×MIC

Row | SMILES | reduction in spore count [2, 7] | reduction in spore count [2, 8] | reduction in spore count (C. difficile NR-49277 [3]; C. difficile NR-49277, 1×MIC) | reduction in spore count (C. difficile NR-49277 [3]; C. difficile NR-49277, ½×MIC) | reduction in spore count (C. difficile ATCC 43255 [4]; C. difficile ATCC 43255, 1×MIC) | reduction in spore count (C. difficile ATCC 43255 [4]; C. difficile ATCC 43255, ½×MIC) | MBC (C. difficile I4) | MIC (C. difficile I4) | MBC (C. difficile P1) | MIC (C. difficile P1) | MBC (C. difficile ATCC 700057) | MIC (C. difficile ATCC 700057) | MBC (C. difficile ATCC 9689) | MIC (C. difficile ATCC 9689) | MBC (C. difficile P7) | MIC (C. difficile P7) | MBC (C. difficile HM-89) | MIC (C. difficile HM-89) | MBC (C. difficile NR-49286) | MIC (C. difficile NR-49286) | other results
1 | Oc1c(I)cc(I)c2cccnc12 [DIHQ, 5,7-diiodoquinolin-8-ol] | ~1.24 log10 | ~0.74 log10 | ~0.62 log10 | ~0.56 log10 | ~0.99 log10 | ~0.38 log10 | 1 µg/mL (≈ 2.52 µM) | 1 µg/mL (≈ 2.52 µM) | 0.5 µg/mL (≈ 1.26 µM) | 0.5 µg/mL (≈ 1.26 µM) | 0.5 µg/mL (≈ 1.26 µM) | 0.5 µg/mL (≈ 1.26 µM) | 0.25 µg/mL (≈ 0.63 µM) | 0.125 µg/mL (≈ 0.315 µM) | 0.5 µg/mL (≈ 1.26 µM) | 0.5 µg/mL (≈ 1.26 µM) | 1 µg/mL (≈ 2.52 µM) | 1 µg/mL (≈ 2.52 µM) | 0.5 µg/mL (≈ 1.26 µM) | 0.25 µg/mL (≈ 0.63 µM) | MIC (C. difficile ATCC 43255 [1]): 0.5 µg/mL (≈ 1.26 µM); time required to generate a 3-log10 reduction in CFU/mL [5]: six; time to complete eradication of the bacteria (below the detection limit, 100 CFU/mL) [5]: ≤ 24 h; time required to generate a 3-log10 reduction in CFU/mL (C. difficile NR-49277 [6]): 4 hours; time to complete eradication of the bacteria (below the detection limit, 100 CFU/mL) (C. difficile NR-49277 [6]): ≤ 6 h; MBC (C. difficile NR-49284): 0.125 µg/mL (≈ 0.315 µM); MIC (C. difficile NR-49284): 0.125 µg/mL (≈ 0.315 µM); MBC (C. difficile NR-49281): 0.25 µg/mL (≈ 0.63 µM); MIC (C. difficile NR-49281): 0.25 µg/mL (≈ 0.63 µM); MBC (C. difficile P24): 2 µg/mL (≈ 5.04 µM); MIC (C. difficile P24): 1 µg/mL (≈ 2.52 µM); MBC (C. difficile P13): 0.5 µg/mL (≈ 1.26 µM); MIC (C. difficile P13): 0.5 µg/mL (≈ 1.26 µM); MBC (C. difficile I2): 2 µg/mL (≈ 5.04 µM); MIC (C. difficile I2): 2 µg/mL (≈ 5.04 µM)
2 | CCc1c(Cl)c(O)c(Cl)c(O)c1C(=O)O[C@H]1[C@H](O)[C@H](OC)[C@H](OC/C2=C\C=C\C[C@H](O)/C(C)=C/[C@H](CC)[C@@H](O[C@@H]3OC(C)(C)[C@@H](OC(=O)C(C)C)[C@H](O)[C@@H]3O)/C(C)=C/C(C)=C/C[C@@H]([C@@H](C)O)OC2=O)O[C@@H]1C [Fidaxomicin, fidaxomicin] | ~1.8 log10 | ~1.02 log10 | ~1.27 log10 | ~0.8 log10 | ~1.8 log10 | ~0.75 log10 | 0.015 µg/mL (≈ 0.0142 µM) | 0.015 µg/mL (≈ 0.0142 µM) | 0.007 µg/mL (≈ 0.00662 µM) | 0.003 µg/mL (≈ 0.00284 µM) | 0.007 µg/mL (≈ 0.00662 µM) | 0.007 µg/mL (≈ 0.00662 µM) | 0.03 µg/mL (≈ 0.0284 µM) | 0.03 µg/mL (≈ 0.0284 µM) | 0.06 µg/mL (≈ 0.0567 µM) | 0.06 µg/mL (≈ 0.0567 µM) | 0.03 µg/mL (≈ 0.0284 µM) | 0.03 µg/mL (≈ 0.0284 µM) | 0.015 µg/mL (≈ 0.0142 µM) | 0.007 µg/mL (≈ 0.00662 µM) | MBC (C. difficile NR-49284): 0.015 µg/mL (≈ 0.0142 µM); MIC (C. difficile NR-49284): 0.015 µg/mL (≈ 0.0142 µM); MBC (C. difficile NR-49281): 0.007 µg/mL (≈ 0.00662 µM); MIC (C. difficile NR-49281): 0.007 µg/mL (≈ 0.00662 µM); MBC (C. difficile P24): 0.03 µg/mL (≈ 0.0284 µM); MIC (C. difficile P24): 0.015 µg/mL (≈ 0.0142 µM); MBC (C. difficile P13): 0.015 µg/mL (≈ 0.0142 µM); MIC (C. difficile P13): 0.015 µg/mL (≈ 0.0142 µM); MBC (C. difficile I2): 0.007 µg/mL (≈ 0.00662 µM); MIC (C. difficile I2): 0.007 µg/mL (≈ 0.00662 µM)
